Measured values published in patent US10570179B2, “Substituted urea depsipeptide analogs as activators of the CLPP endopeptidase” (priority 2016, dated 2020).
Numbered stars: 1 amine (or outer) side, 2 acyl side, 3 side chain; on linkers, the order of the positions; unused ones are H or OH. Bridge positions count the residues as written; N and C are the ends. Square brackets hold non-standard residues; d marks the D form. Peptide text beside a SMILES is read from it. * marks the point of attachment. X5 = O=C([C@@H]1C[C@@H](OP(=O)(O)O)CN1[*:1])[*:2]; Piperazine(2S-CO,4-Me) = CN1CCN[C@H](C(=O)O)C1; Phe(3-OMe) = COc1cccc(C[C@H](N)C(=O)O)c1; Morpholine(3S-CO) = O=C(O)[C@@H]1COCCN1; Phe(3-Me) = Cc1cccc(C[C@H](N)C(=O)O)c1; NH(4-Cl-2-F-phenyl) = Fc1cc(Cl)ccc1N*; Pro(4R-Me) = C[C@H]1CN[C@H](C(=O)O)C1; Hyp = O=C(O)[C@@H]1C[C@@H](O)CN1; NH(4-Et-phenyl) = CCc1ccc(N*)cc1; aThr = C[C@H](O)[C@H](N)C(=O)O; Pip = O=C(O)[C@@H]1CCCCN1; X3 = c1cc2c(cc1N*)OCCO2; CO = O=C([*:1])[*:2]; X2 = Fc1cc(N*)ccc1Cl

Key:
S. aureus ClpP (Sa-ClpP) = biological target: T1, S. aureus ClpP (Sa-ClpP) (Staphylococcus aureus, UniProt Q2G036); test: Casein-BODIPY digestion assay (ClpP activation); format: biochemical
T1 construct: made in house; host or cells: E. coli BL21 (DE3)

[1] = Microsomal metabolic stability; format: in vitro ADME, human
[2] = Microsomal metabolic stability; format: in vitro ADME, mouse
In short: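 CD-1 mouse liver microsomes (0.6381 mg/mL protein microsomal solution, 0.1 M potassium phosphate pH 7.4 with EDTA) were incubated with compound and an NADPH-regenerating system at 37 °C, in triplicate. Acetonitrile/warfarin quench at 0, 15, 30, 60, 120 and 240 min, then LCMS. Half-life came from a first-order least-squares fit.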

Plasma stability assay [3] = format: in vitro ADME, human
In short: (§1)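 Compounds at 10 μM final in human or mouse plasma, incubated at 37 °C and sampled at 0, 3, 24 and 48 h in triplicate. Reactions quenched with cold acetonitrile containing warfarin internal standard; parent measured by LC-MS. Half-life from least-squares first-order fit.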

Plasma stability assay [4] = format: in vitro ADME, mouse
In short: as §1

T1 sequence (Q2G036 whole entry): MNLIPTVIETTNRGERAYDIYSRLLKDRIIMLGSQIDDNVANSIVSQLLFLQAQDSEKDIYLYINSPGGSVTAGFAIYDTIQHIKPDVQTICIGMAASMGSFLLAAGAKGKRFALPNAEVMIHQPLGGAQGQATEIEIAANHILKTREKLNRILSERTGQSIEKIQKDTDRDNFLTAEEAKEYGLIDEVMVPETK

Compound	EC50 (S. aureus ClpP (Sa-ClpP)) [nM]	Human ([1]; human, pH 7.4)	Mouse ([2]; CD-1, mouse, pH 7.4)	Human (Plasma stability assay [3]; human, 10 μM) [h]	Mouse (Plasma stability assay [4]; mouse, 10 μM) [h]	Human ([1]; microsomal metabolic stability half-life, human liver microsomes) [h]	Mouse ([2]; microsomal metabolic stability half-life, mouse liver microsomes) [h]	Human (Plasma stability assay [3]; plasma stability half-life, human plasma, 37° C.) [h]	Mouse (Plasma stability assay [4]; plasma stability half-life, mouse plasma, 37° C.) [h]	Human (hr) (Plasma stability assay [3]; human, 10 μM)	Mouse (hr) (Plasma stability assay [4]; mouse, 10 μM)
Cc1cccc(C[C@H](NC(=O)Nc2ccc3c(c2)OCCO3)C(=O)N[C@@H]2C(=O)N3C[C@H](O)C[C@H]3C(=O)N3CCOC[C@H]3C(=O)N[C@@H](C)C(=O)N3C[C@H](C)C[C@H]3C(=O)O[C@H]2C)c1 [Compound 27, (S)-2-(3-(2,3-DIHYDROBENZO[B][1,4]DIOXIN-6-YL)UREIDO)-N-((6AS,8R,12S,13S,15AS,17R,21S,23AS)-8-HYDROXY-13,17,21-TRIMETHYL-6,11,15,20,23-PENTAOXOOCTADECAHYDRO-6H,11H,15H-[1,4]OXAZINO[3,4-I]DIPYRROLO[2,1-C:2′,1′-L][1]OXA[4,7,10,13]TETRAAZACYCLOHEXADECIN-12-YL)-3-(M-TOLYL)PROPANAMIDE] ({X3-CO}-[Phe(3-Me)][aThr][Hyp][Morpholine(3S-CO)]A[Pro(4R-Me)]; ester 2-C)	1200 ± 100	0.49 ± .495 h	0.79 ± .795 h	>50	>50	–	–	–	–	–	–
Cc1cccc(C[C@H](NC(=O)Nc2ccc(Cl)c(F)c2)C(=O)N[C@H]2COC(=O)[C@@H]3C[C@@H](C)CN3C(=O)[C@H](C)NC(=O)[C@@H]3CN(C)CCN3C(=O)[C@@H]3CCCN3C2=O)c1 [Compound 14, (S)-2-(3-(4-CHLORO-3-FLUOROPHENYL)UREIDO)-3-(M-TOLYL)-N-((6AS,12S,15AS,17R,21S,23AS)-2,17,21-TRIMETHYL-6,11,15,20,23-PENTAOXOOCTADECAHYDRO-2H,6H,11H,15H-PYRAZINO[2,1-I]DIPYRROLO[2,1-C:2′,1′-L][1]OXA[4,7,10,13]TETRAAZACYCLOHEXADECIN-12-YL)PROPANAMIDE] ({X2-CO}-[Phe(3-Me)]SP[Piperazine(2S-CO,4-Me)]A[Pro(4R-Me)]; ester 2-C)	1410 ± 200	0.73 ± 0.07 h	3.15 ± 0.26 h	97.65 ± 17.0	9.55 ± 0.8	–	–	–	–	–	–
Cc1cccc(C[C@H](NC(=O)Nc2ccc(Cl)cc2F)C(=O)N[C@H]2COC(=O)[C@@H]3C[C@@H](C)CN3C(=O)[C@H](C)NC(=O)[C@@H]3CN(C)CCN3C(=O)[C@@H]3CCCN3C2=O)c1 [Compound 13, (S)-2-(3-(4-CHLORO-2-FLUOROPHENYL)UREIDO)-3-(M-TOLYL)-N-((6AS,12S,15AS,17R,21S,23AS)-2,17,21-TRIMETHYL-6,11,15,20,23-PENTAOXOOCTADECAHYDRO-2H,6H,11H,15H-PYRAZINO[2,1-I]DIPYRROLO[2,1-C:2′,1′-L][1]OXA[4,7,10,13]TETRAAZACYCLOHEXADECIN-12-YL)PROPANAMIDE] ({NH(4-Cl-2-F-phenyl)-CO}-[Phe(3-Me)]SP[Piperazine(2S-CO,4-Me)]A[Pro(4R-Me)]; ester 2-C)	1520 ± 100	0.38 ± 0.04 h	0.49 ± 0.03 h	67.3 ± 13.7	10.74 ± 0.8	–	–	–	–	–	–
COc1cccc(C[C@H](NC(=O)Nc2ccc(Cl)cc2F)C(=O)N[C@H]2COC(=O)[C@@H]3C[C@@H](C)CN3C(=O)[C@H](C)NC(=O)[C@@H]3CN(C)CCN3C(=O)[C@@H]3CCCN3C2=O)c1 [Compound 19, (S)-2-(3-(4-CHLORO-2-FLUOROPHENYL)UREIDO)-3-(3-METHOXYPHENYL)-N-((6AS,12S,15AS,17R,21S,23AS)-2,17,21-TRIMETHYL-6,11,15,20,23-PENTAOXOOCTADECAHYDRO-2H,6H,11H,15H-PYRAZINO[2,1-I]DIPYRROLO[2,1-C:2′,1′-L][1]OXA[4,7,10,13]TETRAAZACYCLOHEXADECIN-12-YL)PROPANAMIDE] ({NH(4-Cl-2-F-phenyl)-CO}-[Phe(3-OMe)]SP[Piperazine(2S-CO,4-Me)]A[Pro(4R-Me)]; ester 2-C)	2520 ± 200	0.61 ± 0.06 h	0.80 ± 0.05 h	62.38	12.82	–	–	–	–	–	–
Cc1cccc(C[C@H](NC(=O)Nc2ccc(Cl)cc2F)C(=O)N[C@@H]2C(=O)N3C[C@H](OP(=O)(O)O)C[C@H]3C(=O)N3CCCC[C@H]3C(=O)N[C@@H](C)C(=O)N3C[C@H](C)C[C@H]3C(=O)O[C@H]2C)c1 [Compound 29, (2R,6S,8AS,14AS,16R,20S,21S,23AS)-20-((S)-2-(3-(4-CHLORO-2-FLUOROPHENYL)UREIDO)-3-(M-TOLYL)PROPANAMIDO)-2,6,21-TRIMETHYL-5,8,14,19,23-PENTAOXOOCTADECAHYDRO-1H,5H,14H,19H-PYRIDO[2,1-I]DIPYRROLO[2,1-C:2′,1′-L][1]OXA[4,7,10,13]TETRAAZACYCLOHEXADECIN-16-YL DIHYDROGEN PHOSPHATE] ({NH(4-Cl-2-F-phenyl)-CO}-[Phe(3-Me)][aThr][X5][Pip]A[Pro(4R-Me)]; ester 2-C)	240 ± 240	–	–	–	–	>4	>4	>50	102.25	–	–
Cc1cccc(C[C@H](NC(=O)Nc2ccc(Cl)cc2F)C(=O)N[C@@H]2C(=O)N3CCC[C@H]3C(=O)N3CCCC[C@H]3C(=O)N[C@@H](C)C(=O)N3C[C@H](C)C[C@H]3C(=O)O[C@H]2C)c1 [Compound 3, (S)-2-(3-(4-CHLORO-2-FLUOROPHENYL)UREIDO)-3-(M-TOLYL)-N-((2R,6S,8AS,14AS,20S,21S,23AS)-2,6,21-TRIMETHYL-5,8,14,19,23-PENTAOXOOCTADECAHYDRO-1H,5H,14H,19H-PYRIDO[2,1-I]DIPYRROLO[2,1-C:2′,1′-L][1]OXA[4,7,10,13]TETRAAZACYCLOHEXADECIN-20-YL)PROPANAMIDE] ({NH(4-Cl-2-F-phenyl)-CO}-[Phe(3-Me)][aThr]P[Pip]A[Pro(4R-Me)]; ester 2-C)	390 ± 20	4.68 ± 0.78 h	11.65 ± 2.2 h	–	–	–	–	–	–	>>48 hr	>>48 hr
Cc1cccc(C[C@H](NC(=O)Nc2ccc3c(c2)OCCO3)C(=O)N[C@@H]2C(=O)N3C[C@H](O)C[C@H]3C(=O)N3CCCC[C@H]3C(=O)N[C@@H](C)C(=O)N3C[C@H](C)C[C@H]3C(=O)O[C@H]2C)c1 [Compound 28, (S)-2-(3-(2,3-DIHYDROBENZO[B][1,4]DIOXIN-6-YL)UREIDO)-N-((2R,6S,8AS,14AS,16R,20S,21S,23AS)-16-HYDROXY-2,6,21-TRIMETHYL-5,8,14,19,23-PENTAOXOOCTADECAHYDRO-1H,5H,14H,19H-PYRIDO[2,1-I]DIPYRROLO[2,1-C:2′,1′-L][1]OXA[4,7,10,13]TETRAAZACYCLOHEXADECIN-20-YL)-3-(M-TOLYL)PROPANAMIDE] ({X3-CO}-[Phe(3-Me)][aThr][Hyp][Pip]A[Pro(4R-Me)]; ester 2-C)	910 ± 80	0.18 ± .185 h	0.79 ± .795 h	>50	>50	–	–	–	–	–	–
CCc1ccc(NC(=O)N[C@@H](Cc2cccc(C)c2)C(=O)N[C@H]2COC(=O)[C@@H]3C[C@@H](C)CN3C(=O)[C@H](C)NC(=O)[C@@H]3CN(C)CCN3C(=O)[C@@H]3CCCN3C2=O)cc1 [Compound 16, (S)-2-(3-(4-ETHYLPHENYL)UREIDO)-3-(M-TOLYL)-N-((6AS,12S,15AS,17R,21S,23AS)-2,17,21-TRIMETHYL-6,11,15,20,23-PENTAOXOOCTADECAHYDRO-2H,6H,11H,15H-PYRAZINO[2,1-I]DIPYRROLO[2,1-C:2′,1′-L][1]OXA[4,7,10,13]TETRAAZACYCLOHEXADECIN-12-YL)PROPANAMIDE] ({NH(4-Et-phenyl)-CO}-[Phe(3-Me)]SP[Piperazine(2S-CO,4-Me)]A[Pro(4R-Me)]; ester 2-C)	630 ± 100	0.86 ± 0.07 h	1.80 ± 0.09 h	>50	6.86 ± 0.7	–	–	–	–	–	–
